Source: US9096852B2, “Inhibitors of micro-RNAs for use for preventing and/or attenuating skin ageing and/or for hydrating skin” (CHANEL PARFUMS BEAUTE, priority 2010, dated 2015)
“Also recorded” adds a separate entry of the source.

How the values were obtained:
Mir 181a = experiment: Screening of active compounds: miR-181a expression by real time PCR in keratinocytes; format: cell-based, human; settings: 48 hours
Method: Neonatal Human Primary Epidermal Keratinocytes (Hekn, Cascade, Invitrogen, Carlsbad, Calif., USA) were cultured in EpiLife medium added with HKGS growth supplements (Cascade). Cells were constantly kept subconfluent in order to avoid triggering of a differentiation process. Cells were passaged usually once a week, at each passage the harvested cells number and seeded cell number were recorded in order to calculate the population doublings occurring between passages and the population doubling time. At passage 2 300.000 keratinocytes were plated in 60 mm dishes. The day after the cells were treated with the compounds at the indicated concentration for 48 hours without changing of the media. Cells were collected by scraping in medium. Cells were centrifuged at 800 g for 5 min and RNA was extracted. Total RNA from cells was isolated using […] Isolation Kit (Ambion) by following the manufacturer's protocol for total RNA extraction. Total RNA was quantified using a NanoDrop Spectophotometer (Thermo Scientific, Delaware, USA) and RNA quality was controlled on an agarose gel. […] The expression of each gene and miR was defined from the threshold cycle (Ct), and relative expression levels were calculated by using the 2-ΔΔCt method after normalization with reference to the expression of the housekeeping gene U18. […]

Mir 130a = experiment: Screening of active compounds: miR-130a expression by real time PCR in keratinocytes; format: cell-based, human; settings: 48 hours
Method: (§1) Neonatal Human Primary Epidermal Keratinocytes (Hekn, Cascade, Invitrogen, Carlsbad, Calif., USA) were cultured in EpiLife medium added with HKGS growth supplements (Cascade). Cells were constantly kept subconfluent in order to avoid triggering of a differentiation process. Cells were passaged usually once a week, at each passage the harvested cells number and seeded cell number were recorded in order to calculate the population doublings occurring between passages and the population doubling time. At passage 2 300.000 keratinocytes were plated in 60 mm dishes. The day after the cells were treated with the compounds at the indicated concentration for 48 hours without changing of the media. Cells were collected by scraping in medium. Cells were centrifuged at 800 g for 5 min and RNA was extracted.
Total RNA from cells was isolated using mirVana mirRNA Isolation Kit (Ambion) by following the manufacturer's protocol for total RNA extraction. Total RNA was quantified using a NanoDrop Spectophotometer (Thermo Scientific, Delaware, USA) and RNA quality was controlled on an agarose gel. For microRNA detection, RNA was reverse transcribed using TaqMan MicroRNA Reverse Transcription kit and qRT-PCR was performed with TaqMan universal master mix (Applied Biosystem) and specific primers for miR-130a, -138, -181a and -191. U18 was used as an internal control (Applied Biosystem). The expression of each gene and miR was defined from the threshold cycle (Ct), and relative expression levels were calculated by using the 2-ΔΔCt method after normalization with reference to the expression of the housekeeping gene U18.
The following compounds were tested according to the process of the invention, and the following results were obtained: […]

Mir 191 = experiment: Screening of active compounds: miR-191 expression by real time PCR in keratinocytes; format: cell-based, human; settings: 48 hours, compound at 6. 10-5%
Method: as §1
Total RNA from cells was isolated using mirVana mirRNA Isolation Kit (Ambion) by following the manufacturer's protocol for total RNA extraction. Total RNA was quantified using a NanoDrop Spectophotometer (Thermo Scientific, Delaware, USA) and RNA quality was controlled on an agarose gel. […] The expression of each gene and miR was defined from the threshold cycle (Ct), and relative expression levels were calculated by using the 2-ΔΔCt method after normalization with reference to the expression of the housekeeping gene U18. […]

Sirt-1 3′UTR wt = experiment: Luciferase reporter assay, Sirt-1 3′UTR wt, HEK 293E cells; format: cell-based, human; settings: Sirt-1 3′UTR wt reporter, 12 pmol pre-miR, 24 hours after transfection
Method: Human Sirt-1 3′UTR was amplified by PCR from the first nucleotide after stop codon to the last nucleotide before polyadenylation signal from human genomic DNA using the following primers:
The 1940 bp fragment (i.e. pSirT1 3′UTR wt), after SpeI restriction, was ligated to a compatible XbaI linearized pGL3 Control vector (Promega, Madison, Wis., USA).
(§2) 2×10^5 HEK 293E cells were seeded in 12 well dishes 24 hours before transfection. Cells were transfected using Lipofectamine 2000 (Invitrogen) with 100 ng of pGL3 vectors (i.e. with Sirt-1 3′UTR wt or Sirt-1 3′UTR miR-138 del), 12 pmol of pre-miR-138 or pre-miR scramble sequence (Ambion), and 10 ng of Renilla luciferase pRL-CMV vector. Luciferase activities of cellular extracts were measured 24 hours after transfection, by using a Dual Luciferase Reporter Assay System (Promega); light emission was measured over 10 seconds using an OPTOCOMP I luminometer. Efficiency of transfection was normalised using Renilla luciferase activity.
2×10^5 HEK 293E cells were seeded in 12 well dishes 24 hours before transfection. […] Luciferase activities of cellular extracts were measured 24 hours after transfection, by using a Dual Luciferase Reporter Assay System (Promega); light emission was measured over 10 seconds using an OPTOCOMP I luminometer. […]

SirT1 protein = experiment: Western blot of SirT1 in transfected human keratinocytes; format: cell-based; settings: versus scrambled sequence (Ctrl)
Method: Human primary keratinocytes were cultured in EpiLife medium with HKGS growth supplements (Cascade) and treated with CaCl2 1.2 mM in order to induce the differentiation process. Differentiated cells were harvested after 7 days of treatment for microRNA levels analysis. Human primary keratinocytes were transfected with human pre-miR-138, anti-miR-138 and Cy3-labeled negative control (Ambion, Texas, USA) using the SiPORT neoFX transfection agent (Ambion) according to manufacturer protocols. 16 hrs after transfection, the medium was removed and replaced with fresh medium.
(§3) Total cell extracts were resolved on a SDS polyacrylamide gel, blotted on a Hybond P PVDF membrane (G&E Healthcare, UK). Membranes were blocked with PBST 5% non fat dry milk, incubated with primary antibodies for 2 h at room temperature, washed and hybridized for 1 h at room temperature using the appropriate horseradish peroxidase-conjugated secondary antibody (rabbit and mouse, BioRad, Hercules, Calif., USA). Detection was performed with the ECL chemiluminescence kit (Perkin Elmer, Waltham, Mass., USA).
anti-Sirt-1 (Abcam, Cambridge, United Kingdom; 1/500 dilution), anti-β actin (Sigma, St Louis, Minn., USA; 1/5000 dilution), were used.
The human primary keratinocytes described in Example 1 are used in this example. […]

[1] = tested on: proliferating keratinocytes; experiment: Proliferation by BrdU incorporation (Click-iT EdU flow cytometry) after miR over-expression; format: cell-based; settings: over-expression in proliferating human primary keratinocytes
Method: (§4) The human primary keratinocytes described in Example 1 are used in this example. Human primary keratinocytes were cultured in EpiLife medium with HKGS growth supplements (Cascade). […] 16 hrs after transfection, the medium was removed and replaced with fresh medium.
Methods used to evaluate cell proliferation are generally based on incorporation of bromodeoxyuridine (BrdU) during DNA synthesis. The Click-iT™ EdU flow cytometry assay kit is a novel alternative to BrdU assay (Molecular Probes, Eugene, Oreg., USA). […] Briefly, cells were incubated with EdU for 4 hrs. After incubation, samples were fixed, permeabilized and stained according to the manufacturer's protocol. Cell cycle was analysed using a FACSCalibur flow cytometer (BD Biosciences, San Jose, Calif., USA). Fifteen thousand events were evaluated using the Cell Quest (BD) and Modfit LT (Verity Software; BD) programs.

[2] = tested on: proliferating keratinocytes; experiment: Senescence-associated β-galactosidase staining after miR over-expression; format: cell-based; settings: over-expression in proliferating human primary keratinocytes
Method: as §4
Cells were plated in 6-well culture plates, washed with PBS, and fixed with 2% formaldehyde/0.2% glutaraldehyde in PBS for 5 minutes. After another washing step with PBS, cells were incubated with β-galactosidase staining solution (150 mmol/L NaCl, 2 mmol/L MgCl2, 5 mmol/L potassium ferricyanide, 5 mmol/L potassium ferrocyanide, 40 mmol/L citric acid, 12 mmol/L sodium phosphate, pH 6.0, containing 1 mg/mL 5-bromo-4-chloro-3-indolyl-β-Dgalactoside [X-gal]) for 24 hours at 37° C. The reaction was stopped by replacing the staining solution with 70% glycerol.

[3] = tested on: Sirt-1 3′UTR miR-181a del; experiment: Luciferase reporter assay, Sirt-1 3′UTR miR-181a del, HEK 293E cells; format: cell-based, human; settings: Sit 3′UTR miR-181a del reporter, 24 hours after transfection
Method: On the other hand, from this wild type sequence, the miR-181a predicted target site (7 bp, UGAAUGU) was deleted by PCR using the following overlapping primers:
Therefore, the SirT1 3′UTR miR-181a del is obtained.
as §2, with “miR-181a” for “miR-138”, “pre-miR-181a” for “pre-miR-138”

CDK6 3′UTR wt = experiment: Luciferase reporter assay, CDK6 3′UTR wt, HEK 293E cells; format: cell-based; settings: CDK6 3′UTR wt reporter, 24 hours after transfection
Method: 2×10^5 HEK 293E cells were seeded in 12 well dishes 24 hours before transfection. Cells were transfected using Lipofectamine 2000 (Invitrogen) with 100 ng of pGL3 vectors 12 pmol of pre-miR-191 or pre-miR scramble sequence (Ambion), and 10 ng of Renilla luciferase pRL-CMV vector. Luciferase activities of cellular extracts were measured 24 hours after transfection, by using a Dual Luciferase Reporter Assay System (Promega); light emission was measured over 10 seconds using an OPTOCOMP I luminometer. Efficiency of transfection was normalised using Renilla luciferase activity.

CDK6 protein = experiment: Western blot of CDK6 in transfected human keratinocytes; format: cell-based; settings: versus scrambled sequence (Ctrl)
Method: The human primary keratinocytes described in Example 1 are used in this example. Human primary keratinocytes were cultured in EpiLife medium with HKGS growth supplements (Cascade) and treated with CaCl2 1.2 mM in order to induce the differentiation process. Differentiated cells were harvested after 7 days of treatment for microRNA levels analysis. Human primary keratinocytes were transfected with human pre-miR-191, anti-miR-191 and Cy3-labeled negative control (Ambion, Texas, USA) using the SiPORT neoFX transfection agent (Ambion) according to manufacturer protocols. 16 hrs after transfection, the medium was removed and replaced with fresh medium.
as §3
Polyclonal anti-CDK-6 (Santa Cruz, sc-177, dilution 1:2000), anti-β actin (Sigma, St Louis, Minn., USA; 1/5000 dilution), were used.

Molecule: Oc1ccc(C=Cc2cc(O)cc(O)c2)cc1 [Resveratrol]
- inhibition of Mir 181a expression (Mir 181a; compound at 4. 10-4%): >20 (21%)
- inhibition of Mir 130a expression (Mir 130a; compound at 4. 10-4%): >20 (25%)

Molecule: COC(=O)C1Cc2cc(OC(C)=O)c(OC(C)=O)cc2N1C(C)=O (centres unmarked) [Tryacetyl-leukodopachrome methyl ester]
- inhibition of Mir 130a expression (Mir 130a; compound at 10-3%): 20 (10-3%)

Molecule: CCCCC[C@H](O)CC(=O)CCc1ccc(O)c(OC)c1 [Gingerol 6]
- inhibition of Mir 191 expression (Mir 191): >20 (24%)
- inhibition of Mir 181a expression (Mir 181a; compound at 6. 10-5%): >20 (29%)
- inhibition of Mir 130a expression (Mir 130a; compound at 6. 10-5%): >20 (37%)

Molecule: pre-miR-181a: human pre-miR-181a (Ambion) transfected to over-express miR-181a (SEQ ID No. 3) [reference compound]
- luciferase activity (Sirt-1 3′UTR wt): 0.648±0.1 fold over control
- SirT1 protein level (Western blot) (SirT1 protein): markedly diminished
- proliferation as evaluated by BrdU incorporation ([1]; listed as miR181a): significantly diminished
- proliferation as evaluated by BrdU incorporation ([1]; listed as miR-181a): strong effect on inhibition of proliferation
- senescence as evaluated by SA-β-galactosidase staining ([2]; listed as miR-181a): sufficient per se to induce senescence; also recorded: significantly increase
- luciferase activity [3]: 0.93±0.09 fold over control

B1: pre-miR-191: human pre-miR-191 (Ambion) transfected to over-express miR-191 (SEQ ID No. 4) (nucleic acid)
chain: CGGCUGGACAGCGGGCAACGGAAUCCCAAAAGCAGCUGUUGUCUCCAGAGCAUUCCAGCUGCGCUUGGAUUUCGUCCCCUGCUCUCCUGCCU
modifications: precursor form, further chemistry not given here
- luciferase activity (CDK6 3′UTR wt): 0.78±0.1 fold over control
- proliferation as evaluated by BrdU incorporation ([1]; listed as miR191): significantly diminished
- proliferation as evaluated by BrdU incorporation ([1]; listed as miR-191): strong effect on inhibition of proliferation
- senescence as evaluated by SA-β-galactosidase staining ([2]; listed as miR-191): significantly increase; also recorded: sufficient per se to induce senescence
- CDK6 protein level (Western blot) (CDK6 protein): markedly diminished
